Data as given in US20250145625A1, “PYRAZOLOPYRIMIDINE DERIVATIVE AND ANTICANCER PHARMACEUTICAL COMPOSITION CONTAINING SAME AS ACTIVE INGREDIENT” (KOREA RESEARCH INSTITUTE OF CHEMICAL TECHNOLOGY, priority 2021, published 2025).

Key:
[1] = system: MDA-MB-231 triple negative breast cancer cell line; assay: Cell cycle distribution of co-treatment with paclitaxel in MDA-MB-231 cells; format: cell-based; conditions: co-treated with 0.001 μM paclitaxel
Protocol: To determine the change in cell cycle distribution when a compound represented by Chemical Formula 1 according to the present invention and paclitaxel were co-applied to MDA-MB-231 cells, the following test was conducted.
MDA-MB-231 triple negative breast cancer cell line purchased from ATCC was inoculated into each well of a 6-well plate at 100,000 cells. Thereafter, paclitaxel was added at concentrations of 0 μM and 0.001 μM and an example compound of the present invention was added at concentrations of 0 μM, 0.03 μM, or 0.1 μM, and the cells were cultured in a cell incubator at 37° C. for 2 days. After 2 days, the cells were fixed with 70% ethanol, and added and into 200 μL of Muse Cell Cycle reagent in a light-shielded state and cultured for 30 minutes. Then, the cell cycle distribution was analyzed using a Muse Cell Analyzer (manufacturer: Merck, Millipore), and the results are shown in FIG. 6.

[2] = system: HCT116 colon cancer cell line; assay: Cytotoxicity in TTK-expressed HCT116 cells; format: cell-based; conditions: Homo sapiens, HCT-116, 120 h, 5 days
Protocol: To determine the cytotoxicity of a compound represented by Chemical Formula 1 according to the present invention to HCT116 cells, the following test was conducted.
HCT116 colon cancer cell line purchased from ATCC was inoculated into each well of a 96-well plate at a volume of 90 μL containing 2,000 cells. Thereafter, an example compound of the present invention was added to respective wells at concentrations of […], 3 μM, 1 μM, 0.3 μM, 0.1 μM, and 0 μM, and the cells were cultured in a cell incubator at 37° C. for 5 days. After 5 days, the number of cells was measured by CCK8 test method, and the cytotoxicity was determined by calculating the IC50 value for cytotoxicity of each compound.

[3] = system: MDA-MB-231 triple negative breast cancer cell line; assay: Cytotoxicity in TTK-expressed MDA-MB-231 cells; format: cell-based; conditions: Homo sapiens, MDA-MB-231, 120 h, 5 days
Protocol: To determine the cytotoxicity of a compound represented by Chemical Formula 1 according to the present invention to MDA-MB-231 cells, the following test was conducted.
MDA-MB-231 triple negative breast cancer cell line purchased from ATCC was inoculated into each well of a 96-well plate at a volume of 90 μL containing 2,000 cells. Thereafter, an example compound of the present invention was added to respective wells at concentrations of 10 μM, 3 μM, 1 μM, 0.3 μM, 0.1 μM, and 0 μM, and the cells were cultured in a cell incubator at 37° C. for 5 days. Five days later, 10 μL of Cyto X solution (manufacturer: LPS Solution) was added to each of the wells, and the absorbance was measured at 450 nm using an Epoch microplate spectrophotometer (manufacturer: BioTek Instruments Inc.) according to the product's user guide. For cytotoxicity, the IC50 value for cytotoxicity of each compound was calculated by quantifying the number of cells using the measured value.

[4] = system: MDA-MB-231 tumor in nude mice; assay: Drug efficacy on nude mice employing MDA-MB-231; format: in vivo; conditions: MDA-MB-231, oral 6 mg/kg daily for 4 weeks
Protocol: 5-Week-old female nude mice were subcutaneously injected with 5×10^6 MDA-MB-231 cells into the flank. When the tumor volume reached approximately 50 mm^3, the mice were divided into groups, each containing 5 animals, which were than orally administered a drug. The dosage of the drug was 6 mg/kg and administered daily for 4 weeks.

## Cc1cc(-c2cnn3c(NC[C@H]4C[C@@](C)(O)C4)cc(Oc4cccnc4)nc23)ccc1C(=O)NC1CC1 [Comparative Example 1, CFI-402257, reference compound]
[1]
  change in cell distribution on co-treatment: enhanced changes in cell distribution
[2]
  IC50: < 150 nM
[3]
  IC50: < 150 nM
[4]
  tumor volume over time: reduced
